Assay results from article PMC6539072, “Diclofenac-Derived Hybrids for Treatment of Actinic Keratosis and Squamous Cell Carcinoma” (Molecules, 2019).
“Also recorded” adds a separate entry of the source.

Assays:
[1] = system: EGF-stimulated HaCaT cells; experiment: Neutral Red cell viability assay on EGF-stimulated HaCaT cells (actinic keratosis model); type: cell-based, human; settings: for potency relative to diclofenac (native drugs): ratio of IC50 values on EGF-stimulated HaCaT
Procedure: (§1) The immortalized human keratinocyte (HaCaT) cells and human squamous carcinoma (A431) cells (Sigma-Aldrich, Milan, Italy) were cultured in RPMI 1640 (Euroclone, Milan, Italy) supplemented with 10% fetal bovine serum (FBS), 100 U/mL penicillin, and 100 μg/mL streptomycin (Euroclone) at 37 °C in a humidified atmosphere containing 5% CO2.
HaCaT cells under the proliferative stimulus of EGF were used as model of actinic keratosis (AK), a precancerous disease that can progress in cutaneous squamous cell carcinoma (cSCC), according to the critical role played by the EGFR/Fyn/Src/Erk pathway for promoting cSCC formation. Cells were stimulated with EGF at the concentration 5 ng/mL for whole time of treatment with test compounds (see below).
(§2) Both HaCaT (EGF-stimulated) and A431 cells were incubated for 72 h with the test compounds at concentrations in the range 0.1–100 μM.
(§3) Cell viability was measured using the Neutral Red (NR) Assay (N2889, Sigma-Aldrich, Darmstadt, Germany) as previously reported. HaCaT and A431 cell lines were seeded at a density of 5 × 10^4 cells/well in 10% FBS medium in a 96-well plate. After 24 h, test compounds, dissolved in DMSO, were diluted in sterile culture medium supplemented with EGF (HaCaT cells) or 1% FBS (A431 cells) and added into the well plate. […] Diclofenac, HT, T and hybrids 1–4 were tested. After 72 h from treatment, NR was added and cells incubated for 2 h. At the end of the incubation period, cells were washed with PBS and, then, incubated for 10 min with a NR solubilisation solution (1% acetic acid in 50% ethanol). The absorbance was measured at 540 nm using the Infinite M200 NanoQuant instrument (Tecan, Salzburg, Austria). Optical density values from vehicle-treated cells were considered as 100% cell viability.

A431 cells = experiment: Neutral Red cell viability assay on A431 squamous carcinoma cells; type: cell-based, human; settings: for IC50: neutral red, 0.1–100 μM, NR: not reached
Procedure: as §1, §2, §3

[2] = no reference given; cited from earlier work
[3] = In vitro cutaneous permeation through pig ear skin (Gummer-type diffusion cells); type: in vitro ADME; settings: measured as hybrid 1 in receiving phase; 24 h
Description: Porcine ears skin, obtained from freshly sacrificed animals in a local slaughterhouse, was used as model. After cleaning with depurated water, full-thickness skin was removed with a scalpel from the cartilage of the outer region. The excised pig ear skin was carefully deprived of the adhering fat and subcutaneous tissue. Prior to the experiments, the pig hairs were abscised and the skin was gently washed. The skin with a thickness about 1.46 ± 0.06 mm was placed in the Gummer-type diffusion cells with the stratum corneum facing the donor compartment and an available diffusion area of […]. […]
The concentration of diclofenac and hybrid 1 in receiving fluids and in the skin samples was selectively determined by HPLC. […]
Linear regression analysis of pseudo steady state diffusion plots allowed calculation of the following parameters: steady-state flux (J, nmols/cm^2·h), given by Q/At, where Q is the amount of permeant diffusing across area A in time t; lag time (h), indicating the time taken by the drug to saturate the membrane and reach the receiving phase, calculated from the X-axis intercept values of the regression lines and the amount of drug permeated at the end of the experiment (Q24h, nmols).

[4] = EGF-stimulated HaCaT (5 ng/mL EGF), 72 h, neutral red, 0.1–100 μM, NR: not reached
[5] = Homo sapiens, EGF-stimulated HaCaT (5 ng/mL EGF), 72 h, neutral red, 0.1–100 μM, NR: not reached
[6] = Homo sapiens, A-431, A431, 72 h

IC50 (A431 cells; [6]) [µM]	Compound	IC50 [1, 5] [µM]	also measured
	3-Hydroxyphenethyl 2-(2-((2,6-dichlorophenyl)amino)phenyl)acetate [hybrid 2]		IC50 [1, 4]: 16.1 ± 1.15 µM; potency relative to diclofenac (native drugs) [1]: 4 fold; IC50 (A431 cells; A431, 72 h): 27.5 ± 1.24 µM
> 100	OCCc1ccc(O)c(O)c1 [HT, hydroxytyrosol, reference compound]	72.3 ± 3.58	
> 100	OCCc1ccc(O)cc1 [T, tyrosol, reference compound]	> 100	IC50 ± SEM [1, 4]: not reached
	O=C(O)Cc1ccccc1Nc1c(Cl)cccc1Cl [diclofenac sodium]		partition coefficient n-octanol/water, log POW [2]: 4.98
32 ± 1.05	O=C(O)Cc1ccccc1Nc1c(Cl)cccc1Cl [diclofenac]	67.1 ± 1.94	
13.5 ± 2.49	O=C(Cc1ccccc1Nc1c(Cl)cccc1Cl)OCCc1ccc(O)c(O)c1 [hybrid 1, 3,4-Dihydroxyphenethyl 2-(2-((2,6-dichlorophenyl)amino)phenyl)acetate]	3.71 ± 1.08	Flux [3]: did not permeate across the skin; potency relative to diclofenac (native drugs) [1]: about 20 fold; IC50 in A431 relative to IC50 in EGF-stimulated HaCaT (A431 cells; A431 vs EGF-stimulated HaCaT): about 4 fold; melting point: 123 to 125 °C

Compound	IC50 (A431 cells; [6]) [µM]	IC50 [1, 5] [µM]	also measured
O=C(CCCOC(=O)Cc1ccccc1Nc1c(Cl)cccc1Cl)OCCc1ccc(O)c(O)c1 [hybrid 3, 3,4-Dihydroxyphenethyl 4-(2-(2-((2,6-dichlorophenyl)amino)phenyl)acetoxy)butanoate]	30.7 ± 1.33	17.8 ± 1.09	
O=C(CCCOC(=O)Cc1ccccc1Nc1c(Cl)cccc1Cl)OCCc1ccc(O)cc1 [hybrid 4, 4-Hydroxyphenethyl 4-(2-(2-((2,6-dichlorophenyl)amino)phenyl)acetoxy)butanoate]	> 100	> 100	effect on cell viability (in words) ([1]; EGF-stimulated HaCaT, 72 h): antiproliferative effect lower than that of diclofenac; also recorded: not able to induce modification in cell viability; effect on cell viability (in words) (A431 cells; A431, 72 h): not able to induce modification in cell viability
